Like-named read-outs stand apart in the source and are kept apart here.
How the values were obtained:
[1] = Open label pharmacokinetic study GW01-0804: serum pharmacokinetics; conditions: for Geometric LS Mean, Reference (trough serum concentration) / Geometric LS Mean, Test (trough serum concentration): Primary steady-state analysis
From the text: Subjects stayed at the study center overnight during the treatment initiation visit (Day 1, first evening application) and the end-of-treatment visit (Day 21, last evening application). […] In addition, serum PK samples were collected in the evening prior to application on Days 7 and 14 to determine trough concentrations for steady-state analysis.
In addition, single blood draws for PK analysis of trough concentrations to determine steady state were obtained on Day 7 and Day 14 (in the evening prior to application). Blood samples could be obtained within ±5 minutes of the target sampling time.
Pharmacokinetic variables will be calculated from the serum concentration data using standard, non-compartmental methods.

[2] = tested on: rabbit left ventricular wedge preparation; test: Arterially perfused rabbit left ventricular wedge preparation (QT, QRS, Tp-e, arrhythmogenesis)
Experimental: New Zealand White rabbits, either sex weighing 2.3-2.8 kg were anticoagulated with heparin and anesthetized with ketamine/xylazine (40-50 mg/0.5-1.0 mg, per kg, i.v.). The chest was opened via a left thoracotomy, and the heart was excised and placed in a cardioplegic solution consisting of cold (4° C.) normal Tyrode's solution. Transmural wedges with dimensions of approximately 1.5 cm wide and 2-3 cm long were dissected from the left ventricle as described before (Liu et al, Heart Rhythm 2006; 3:948-956). The tissue was cannulated via a small branch of the left anterior descending artery and perfused with cardioplegic solution. […] The ventricular wedge was allowed to equilibrate in the tissue bath until electrically stable for one hour. The preparations were stimulated at basic cycle lengths (BCL) of 1000 and 2000 ms using bipolar silver electrodes insulated except at the tips and applied to the endocardial surface.
The QT interval was defined as the time from the onset of the QRS to the point at which the final downslope of the T wave crosses the isoelectric line. Transmembrane action potential from the endocardium (Endo) was recorded for identification of EADs only when QT prolongation >30% via a customer-made amplifier. Transmural dispersion of repolarization (TDR) was defined as the interval between the end and the peak of T wave (Tp-e).
The ratio of Tp-e to QT was calculated. • (6) Arrhythmic phenomena, including spontaneous R-on-T ectopic beats and TdP, were recorded if they occurred. 3.5 To Estimate Relative TdP Risk
The relative TdP risk of each compound was estimated according in which the Tp-e/QT ratio and […] phenomena were emphasized.
Results were presented as mean±SEM. Statistical analysis was performed using the Student's t-test. A p<0.05 is considered as statistically significant when compared the values at control perfusion.

[3] = Systemic embryofetal development study, intravenous; assay type: in vivo; conditions: rabbits
From the text: (§1) Note: The animal multiples of human exposure calculations were based on daily dose comparisons in this label.

[4] = Oral (gavage) carcinogenicity study, 24 months; assay type: in vivo; conditions: Wistar rats, up to 6 mg/kg 2×/week females (50×MRHD), 4 mg/kg 2×/week males (40×MRHD), 3 mg/kg 7×/week (25×MRHD)
[5] = Genotoxicity tests (five in vitro, three in vivo); conditions: five in vitro and three in vivo genotoxicity tests
[6] = rats, oral
Experimental: A combined fertility and peri- and post-natal development study was conducted in rats.

[7] = Systemic embryofetal development study, oral; assay type: in vivo; conditions: rats
Experimental: as §1
Systemic embryofetal development studies were conducted in rats and rabbits.

[8] = 52-week dermal photo-carcinogenicity study; assay type: in vivo; conditions: hairless mice, imiquimod added to the vehicle cream
From the text: The enhancement of ultraviolet carcinogenicity is not necessarily dependent on phototoxic mechanisms. Therefore, patients should minimize or avoid natural or artificial sunlight exposure to the affected areas.
In a 52-week dermal photo-carcinogenicity study, the median time to onset of skin tumor formation was decreased in hairless mice following chronic topical dosing (3×/week; 40 weeks of treatment followed by 12 weeks of observation) with concurrent exposure to UV radiation (5 days per week) with vehicle alone.

[9] = Multiple oral imiquimod doses (overdosage); assay type: in vivo, human; conditions: multiple oral doses of >200 mg
[10] = Single dose (oral, intraperitoneal, subcutaneous, intravenous) and repeat dose toxicity studies; conditions: for LD50: in vivo
[11] = Acute dermal toxicity study under occlusion; assay type: in vivo, rabbits

CC(C)Cn1cnc2c(N)nc3ccccc3c21 [Imiquimod (R-837)]
AUC(0-inf) ([1]; both, human, in vivo): 5.35 ng·h/mL | AUC(0-t) ([1]; both, human, in vivo, AUC0-24, Mean, serum, Day 1): 3.75 ng·h/mL | AUC(0-t) ([1]; both, human, in vivo, AUC0-24, Mean, serum, Day 21): 6.79 ng·h/mL | AUC(0-t) ([1]; both, human, in vivo, AUC0-t, Mean, serum, Day 1): 3.12 ng·h/mL | half-life ([1]; both, human, in vivo, T1/2, Mean, serum, Day 1): 12.4 h | half-life ([1]; both, human, in vivo, T1/2, Mean, serum, Day 21): 24.1 h | half-life ([1]; both, human, in vivo, T1/2 EFF, Mean, serum, Day 21): 31.3 h | λz, Mean ([1]; serum, Day 1): 0.0756 h⁻¹ | λz EFF, Mean ([1]; serum, Day 21): 0.0380 h⁻¹ | λz, Mean ([1]; serum, Day 21): 0.0370 h⁻¹

COc1cc(N)c(Cl)cc1C(=O)NC1CCN(CCCOc2ccc(F)cc2)CC1OC (stereo not shown) [cisapride]
Effect on Tp-e interval [2]: marked concentration-dependent Tp-e prolongation | Equivocal EAD (preparations) ([2]; both, New Zealand White, rabbit, 0.5 uM): 1 of 4

CC(C)Cn1cnc2c(N)nc3ccccc3c21 [imiquimod, 1-(2-methylpropyl)-1H-imidazo[4,5-c]quinolin-4-amine]
Embryofetal toxicity or teratogenicity ([3]; 1 mg/kg/day (234×MRHD based on AUC)): No treatment related effects | Embryofetal toxicity or teratogenicity ([3]; 2 mg/kg/day (2.1×MRHD based on BSA)): No treatment related effects | Tumors in oral carcinogenicity study [4]: No treatment related tumors | Mutagenic or clastogenic potential [5]: no evidence of mutagenic or clastogenic potential | Teratogenicity ([6]; 3 mg/kg/day (24×MRHD based on AUC)): No treatment related effects | Finding in F1 fetuses ([6]; 6 mg/kg/day (50×MRHD), absence of maternal toxicity): bent limb bones | Embryofetal toxicity or teratogenicity ([7]; 5 mg/kg/day (73×MRHD based on AUC)): No treatment related effects | Fetal effects ([7]; 20 mg/kg/day (375×MRHD based on AUC), in the presence of maternal toxicity): increased resorptions, decreased fetal body weights, delays in skeletal ossification, bent limb bones | Tumor development with UV radiation [8]: No additional effect on tumor development beyond the vehicle effect | Most clinically serious adverse event [9]: hypotension | QT increase ([2]; 150 nM, BCL of 2000 ms, comparable to DMSO vehicle): 4% | Proarrhythmic events ([2]; any preparation at any concentration): did not cause any proarrhythmic events | Effect on QT interval ([2]; concentration range tested): does not have a significant effect | Effect on Tp-e interval ([2]; concentration range tested): no significant effect | Effect on QRS duration ([2]; imiquimod 0.5-150 nM, cisapride at 0.5 uM): no significant effect | Signs of CNS toxicity ([10]; lower repeat doses (100 mg/kg or lower)): did not occur | LD50 ([10]; monkey, iv, LD50, Monkey, intravenous bolus): > 6 mg/kg | LD50 ([10]; monkey, iv, LD50, Monkey, intravenous infusion): ~8 mg/kg | LD50 ([10]; monkey, po, LD50, Monkey): > 200 mg/kg | LD50 ([10]; mouse, ip, LD50, Mouse, Intraperitoneal): 879 mg/kg | LD50 ([10]; mouse, po, LD50, Mouse): 403 mg/kg | Single dose toxicity ([10]; oral, intraperitoneal, subcutaneous or intravenous, lethal doses): central nervous system (CNS) stimulation and convulsions | LD50 ([10]; rat, ip, LD50, Rat, Intraperitoneal): 763 mg/kg | LD50 ([10]; rat, po, LD50, Rat): 1660 mg/kg | LD50 ([10]; rat, sc, LD50, Rat, Subcutaneous): ~20 mg/kg | Geometric LS Mean, Reference (trough serum concentration) ([1]; Day 14 vs. Day 7, N 13): 0.1543 | Geometric LS Mean, Test (trough serum concentration) ([1]; Day 14 vs. Day 7, N 13): 0.1749 | Geometric LS Mean, Reference (trough serum concentration) ([1]; Day 21 vs. Day 14, N 11): 0.1874 | Geometric LS Mean, Test (trough serum concentration) ([1]; Day 21 vs. Day 14, N 11): 0.1571 | Geometric LS Mean, Reference (trough serum concentration) ([1]; Day 22 vs. Day 21, N 12): 0.1643 | Geometric LS Mean, Test (trough serum concentration) ([1]; Day 22 vs. Day 21, N 12): 0.1839 | concentration at 7 day (trough, evening prior to application) ([1]; both, human, in vivo, Geometric LS Mean, Reference (trough serum concentration), Secondary steady-state analysis (BLQ replaced with LLOQ/2), Day 14 vs. Day 7, N 17): 0.127 ng/mL | concentration at 14 day (trough, evening prior to application) ([1]; both, human, in vivo, Geometric LS Mean, Reference (trough serum concentration), Secondary steady-state analysis (BLQ replaced with LLOQ/2), Day 21 vs. Day 14, N 15): 0.115 ng/mL | concentration at 14 day (trough, evening prior to application) ([1]; both, human, in vivo, Geometric LS Mean, Test (trough serum concentration), Secondary steady-state analysis (BLQ replaced with LLOQ/2), Day 14 vs. Day 7, N 17): 0.126 ng/mL | concentration at 22 day (trough, 24 h after the Day 21 application) ([1]; both, human, in vivo, Geometric LS Mean, Test (trough serum concentration), Secondary steady-state analysis (BLQ replaced with LLOQ/2), Day 22 vs. Day 21, N 15): 0.156 ng/mL | LD50 ([11]; Rabbit, Dermal): >5000 mg/kg | Acute dermal toxicity ([11]; rabbits, under occlusion, 5000 mg/kg): did not reveal any toxic effects

From patent publication US10238645B2 (priority 2009, dated 2019)
